Results on four molecules are retold here after patent publication US20220031641A1, “COMPOSITIONS AND METHODS FOR TREATING AND PREVENTING COGNITIVE DYSFUNCTION” (Pharmatrophix, Inc., priority 2019, published 2022).

Like-named read-outs stand apart in the source and are kept apart here.

For data set [1], the system named is lysolecithin-induced demyelination in the corpus callosum. Put plainly: Lysolecithin demyelination model, OPC proliferation and oligodendrogenesis in corpus callosum lesion. It is filed as in vivo, mouse. The text has this: (§1) Cells were fixed at day 100 following induction and the percent of DAPI+ cells expressing the OPC marker PDGFRa was quantified. […] Green=PDGFRa, white=DAPI. Scale bar=10 μm. […] Cells were fixed at day 100 following induction and the percent of DAPI+ cells expressing the mature oligodendrocyte marker MBP was quantified. […] Red=MBP, white=DAPI. Scale bar=10 μm. […] White-dashed circle=lesioned area in the corpus callosum. Scale bar=20 μm. […] FIG. 5K-FIG. 5M show representative confocal images of proliferating OPCs as shown by EdU incorporation into PDGFRa+ cells in mouse OPC cultures treated with vehicle control (FIG. 5K), 50 nM BDNF (FIG. 5L) and 100 nM LM22A-4 (FIG. 5M).
To investigate the effects of LM22A-4 treatment on OPC proliferation and oligodendrogenesis in vivo, we next examined mice treated with either LM22A-4 or vehicle control in a well-established demyelination model. Stereotaxic injection of lysolecithin into white matter regions causes a focal, toxic, demyelinating injury; this leads to microglial activation and demyelination, followed by OPC proliferation, recruitment and migration into the lesion area. […]

For data set [2], the system named is P6-8 mouse OPCs. Put plainly: Oligodendroglial differentiation (CC1+ cells) in murine OPC cultures. Type of data set: cell-based. Conditions: seven-day exposure; BDNF 50 nM, LM22A-4 100 nM daily.
Source text: as §1
(§2) Thus, to therapeutically manipulate BDNF-TrkB signaling to promote oligodendrogenesis, we tested a small molecule TrkB partial agonist, LM22A-4. […] To determine if LM22A-4 could promote OPC proliferation and differentiation in a manner similar to BDNF, we compared the effects of recombinant BDNF, LM22A-4 or vehicle control in cultures of murine OPCs.

A further data set addresses TrkB receptor (Homo sapiens, UniProt Q16620). To be noted: previously shown; cited from earlier work.
Data set [3] has as its system P6-8 mouse OPCs. Put plainly: OPC proliferation index (EdU+/PDGFRa+) in cultures of murine OPCs. Conditions: 24-hour exposure; 0-1000 nM concentration range. It is filed as cell-based.
Source text: as §1, §2

Data set [4] is classed as in vivo, mouse. To be noted: LM22A-4 50 mg/kg i.p. daily P38-P62, tested P63. On the procedure:
(§3) A single point indicates the g-ratio for a single axon. Approximately 100 axons were quantified and the mean g-ratio determined for each mouse. P-values (indicated on plots) were determined by a Student's t-test, comparing the mean g-ratio on a per mouse basis between groups. […] At P63, the Novel Object Recognition Test was performed in mice previously exposed to MTX chemotherapy or PBS vehicle control and later treated with LM22A-4 or vehicle control. Percent preference for novel object was measured as the percent time spent with novel object over the total time spent with either object (n=4 mice in each group). Statistical significance was determined by a one-sample t-test, where the average percent preference for the novel object for each group was measured against a hypothetical value of 50% chance an animal would interact with either object. […] Scale bars=2 μm. FIG. 6F-FIG. 6G show myelin microstructure data shown in FIG. 6C are shown as scatterplots of g-ratio as a function of axon caliber. […] LM22A-4 increases myelin sheath thickness in control mice. […] LM22A-4 rescues myelin deficits in mice exposed to juvenile MTX in small caliber axons (<0.5 μm; n=7 mice, p=0.005), medium caliber axons (0.5 μm-1.0 μm; n=7, p=0.006) and large caliber axons (>1.0 μm; n=7 mice; p=0.033) compared to mice exposed to MTX but treated with vehicle control. Data in FIG. 6A-FIG. 6E shown as mean±SEM, ns=p>0.05, * p<0.05, ** p<0.01 *** p<0.001 as determined by Student's t-test.
(§4) The chemotherapy-induced neurological syndrome is characterized by decreased attention and memory function and this is recapitulated in the MTX mouse model used here. To test the hypothesis that BDNF to TrkB signaling could promote myelination and improve cognitive dysfunction after chemotherapy exposure, mice were subjected to the above MTX chemotherapy protocol, then treated systemically with the TrkB partial agonist LM22A-4 (50 mg/kg i.p. daily, P38-P62, FIG. 6A) or vehicle control, and analyzed at 24 hours after the final injection (P63) for changes in myelin microstructure and behavioral performance in the novel object recognition test.
(§5) Myelin microstructure in the cingulum of the corpus callosum was examined by transmission electron microscopy. […] The myelin microstructural effects of LM22A-4 thus mimic activity-regulated changes in myelin microstructure, but would lack the circuit-specificity of the activity-regulated response. To test the influence of LM22A-4 on a behavioral measure of attention and memory function, the novel object recognition test was used. After brief introduction to two identical objects, mice are then exposed to one familiar object as well as a completely novel object after a time delay of 5-minutes. […] Treatment with LM22A-4 from P38-P62 rescues performance in the novel object recognition test in MTX treated mice as these mice spend a significant percentage of their time interacting with the novel object over the familiar object (MTX+vehicle: 47.94%±3.50%, p=0.5968 over 50%; PBS+vehicle: 63.37%±4.72%, p=0.0219 over 50%; MTX+LM22A-4: 62.81%±3.31%, p=0.0305 over 50%; PBS+LM22A-4: 68.93%±6.34%, p=0.0317 over 50%; FIG. 6E).

For data set [5], the system named is myelinated axons in the cingulum of the corpus callosum. Type of data set: in vivo, mouse. To be noted: for g-ratio: LM22A-4 50 mg/kg i.p. daily P38-P62, analysed P63. The procedure:
as §3, §4, §5

A further data set has as its system human iPSC-derived OPCs. The experiment in a line: In vitro oligodendrogenesis in human iPSC-derived OPCs (PDGFRa+, MBP+ cells). Conditions: day 25-35 of OPC induction; 20 ng/ml BDNF or 1000 nM LM22A-4; fixed at day 100. It is filed as cell-based.
Source text: as §1, §2

The test system of data set [6] is OPCs in the corpus callosum. To be noted: MTX at P21, 28, 35; one month (P63) and 6 months (P203) after cessation; cited from earlier work.
In another data set the test system is BDNF protein. To be noted: mouse, in vivo.
The conditions of data set [7]: BDNF protein; cited from earlier work.

TrkB receptor, sequence (Q16620 32-822): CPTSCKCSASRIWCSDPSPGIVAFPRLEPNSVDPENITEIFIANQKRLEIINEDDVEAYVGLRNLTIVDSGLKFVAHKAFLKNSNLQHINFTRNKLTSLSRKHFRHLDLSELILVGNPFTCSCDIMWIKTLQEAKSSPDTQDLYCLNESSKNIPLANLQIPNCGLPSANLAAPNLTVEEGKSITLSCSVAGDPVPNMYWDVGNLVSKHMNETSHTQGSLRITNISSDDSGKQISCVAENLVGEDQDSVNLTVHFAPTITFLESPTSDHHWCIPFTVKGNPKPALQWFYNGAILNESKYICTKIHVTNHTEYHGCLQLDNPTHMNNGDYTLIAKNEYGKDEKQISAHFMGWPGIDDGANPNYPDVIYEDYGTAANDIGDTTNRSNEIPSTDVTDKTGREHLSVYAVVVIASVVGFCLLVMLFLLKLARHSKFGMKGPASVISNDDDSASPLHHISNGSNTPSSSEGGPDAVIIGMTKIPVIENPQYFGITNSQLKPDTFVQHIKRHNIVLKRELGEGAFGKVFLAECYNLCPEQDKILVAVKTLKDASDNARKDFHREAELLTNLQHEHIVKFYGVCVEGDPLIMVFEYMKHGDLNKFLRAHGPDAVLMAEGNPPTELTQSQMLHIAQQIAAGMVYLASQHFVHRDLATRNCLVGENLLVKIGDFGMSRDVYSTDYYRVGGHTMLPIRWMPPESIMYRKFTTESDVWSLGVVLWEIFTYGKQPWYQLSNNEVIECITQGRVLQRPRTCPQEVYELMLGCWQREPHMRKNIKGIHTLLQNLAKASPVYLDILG

With `O=C(NCCO)c1cc(C(=O)NCCO)cc(C(=O)NCCO)c1` [LM22A-4, N,N′,N″-tris(2-hydroxyethyl)-1,3,5-benzenetricarboxamide], the “density of EdU+/PDGFRa+ proliferating OPCs in lesioned area” value in [1] (50 mg/kg i.p. for one week from day 7 after lysolecithin injection) was 1132±67.1 cells/mm3. For the same molecule, in [1] (50 mg/kg, day 7 to 21 following lysolecithin injury), the “density of EdU+/CC1+ newly generated mature oligodendrocytes in lesioned area” value came to 764.8±141.6 cells/mm3. The “oligodendroglial differentiation, cells expressing CC1 relative to vehicle control” value in the data set with P6-8 mouse OPCs [2] is on record as “similarly promoted oligodendroglial differentiation”. In addition, the TrkB receptor activation entry on TrkB receptor is “activate the TrkB receptor specifically”. In the data set with P6-8 mouse OPCs [3], the “proliferative index of OPCs (fraction of total cells in S phase, co-localization of PDGFRa with EdU)” value was “similarly increased the proliferative index of OPCs in the low nanomolar range and in a dose-dependent manner”. The “percent preference for novel object” value is listed as 62.81%±3.31% in data set [4] (MTX-exposed mice) and 68.93%±6.34% in data set [4] (PBS-exposed mice). Also, the g-ratio in [5] (MTX-exposed mice (100 mg/kg i.p. P21, 28, 35)) worked out at 0.733±0.017; in data set [5] (PBS-exposed mice) it was 0.713±0.010. The “myelin thickness by axon caliber” value in data set [5] (MTX-treated mice, small (<0.5 μm), medium (0.5-1.0 μm), large (>1.0 μm) caliber axons) is “increased myelin thickness in small, medium and large caliber axons”. Further, the “in vitro oligodendrogenesis in human oligodendroglial lineage cells” value in the data set with human iPSC-derived OPCs was “similarly promote in vitro oligodendrogenesis”.
As to `CN(Cc1cnc2nc(N)nc(N)c2n1)c1ccc(C(=O)N[C@@H](CCC(=O)O)C(=O)O)cc1` [MTX, methotrexate], in [6], the “OPCs in the corpus callosum after MTX exposure” value is listed as “lasting reduction of OPCs in the corpus callosum”. In addition, in the data set with BDNF protein, the corpus callosum BDNF protein levels came out at 5350 ± 1740 pg/mL and the “decrease in corpus callosum BDNF protein levels compared to PBS vehicle controls” value is listed as “more than three-fold decrease”.
As for “BDNF: brain-derived neurotrophic factor, recombinant protein, ligand of TrkB”, the “oligodendroglial differentiation, cells expressing CC1 relative to vehicle control” value with P6-8 mouse OPCs [2] is recorded as “similarly promoted oligodendroglial differentiation”. Also, the “proliferative index of OPCs (fraction of total cells in S phase, co-localization of PDGFRa with EdU)” value with P6-8 mouse OPCs [3] is recorded as “increased the proliferative index”. In the data set with human iPSC-derived OPCs, the “in vitro oligodendrogenesis in human oligodendroglial lineage cells” value was “similarly promote in vitro oligodendrogenesis”.

B1: BDNF: brain-derived neurotrophic factor, recombinant protein, ligand of TrkB (protein, UniProt P23560 19-247, looked up)
Neurotrophic factor BDNF …: APMKEANIRGQGGLAYPGVRTHGTLESVNGPKAGSRGLTSLADTFEHVIEELLDEDQKVRPNEENNKDADLYTSRVMLSSQVPLEPPLLFLLEEYKNYLDAANMSMRVRRHSDPARRGELSVCDSISEWVTAADKKTAVDMSGGTVTVLEKVPVSKGQLKQYFYETKCNPMGYTKEGCRGIDKRHWNSQCRTTQSYVRALTMDSKKRIGWRFIRIDTSCVCTLTIKRGR
On to B1, for which, in data set [7], the blood-brain-barrier penetration result is “poor blood-brain-barrier penetration” and the plasma half-life result is on record as “short plasma half-life”.
